Data taken from patent US20050215634A1 (priority 2003, published 2005).
Where two headings read alike, the source gives them in different places.

Key:
HIV-1 = assay type: cell-based
HVECs = assay type: cell-based, human
rabbit RBCs [1] = assay: Streptolysin S-induced hemolysis on RBC agar plates; assay type: cell-based; conditions: rabbit blood agar plates containing GML, surface culture of Group A Streptococci
Experimental: The effect of GML on streptolysin S-induced hemolysis was assayed by direct culturing of Streptococci on the surface of the RBC-containing agar plates.

rabbit RBCs [2] = assay: Streptolysin O-induced hemolysis on RBC agar plates; assay type: cell-based; conditions: GML 10 μg/ml in agar, Group A Streptococci stabbed into agar
Experimental: GML (10 μg/ml) was incorporated into culture plates containing solid agar and rabbit RBCs suspended in the agar. The effect of GML on streptolysin O-induced hemolysis was tested by stabbing the Group A Streptococci into the agar so as to permit the anaerobic growth of the bacteria beneath the surface of the agar and thereby allow streptolysin O to function.

[3] = GML 20 μg/ml + SPEA 100 μg/ml, 6 hours
[4] = GML 20 μg/ml + TSST-1 100 μg/ml, 6 hours

Row | Compound | Cell viability (human PBMC) | Total number of cells versus control sample without GML (human PBMC) | Cells expressing HIV-1 p24 (HIV-1) | IL-8 (pg/ml ± SE) (HVECs) | MIP-3α (pg/ml ± SE) (HVECs) | IL-8 (pg/ml ± SE) (HVECs; [3]) | MIP-3α (pg/ml ± SE) (HVECs; [3]) | IL-8 (pg/ml ± SE) (HVECs; [4]) | MIP-3α (pg/ml ± SE) (HVECs; [4]) | Streptolysin S-induced hemolysis (rabbit RBCs [1]) | Streptolysin O-induced hemolysis of RBCs (rabbit RBCs [2])
1 | CCCCCCCCCCCC(=O)OCC(O)CO (stereo not shown) [GML, glycerol monolaurate] | preserved | significantly less | rare and no cells expressing p24 | None Detected | None Detected | None Detected | None Detected | None Detected | None Detected | completely inhibited | completely prevented hemolysis
2 | Ovalbumin [reference compound] | – | – | – | 36 ± 1.5 pg/mL | 12 ± 1.8 pg/mL | – | – | – | – | – | –
